This assay has as its target T1, α5β1 integrin (Homo sapiens, UniProt P05556+P08648).
T1 construct: α5β1 integrin mediated adhesion of K562 cells; host or cells: K562 human erythroleukaemia cells (integrin, endogenous); E. coli (Fn9-10 ligand, made in house)
Put plainly: In vitro cell adhesion assay: α5β1 integrin mediated adhesion of K562 cells to fibronectin fragment Fn9-10. Particulars: human K562 erythroleukaemia cells; Fn9-10 coated plates; 0.2 mM MnCl; 45 minutes at 37° C.; crystal violet absorbance at 590 nm. Format: cell-based. The source says: The assay determined the ability of compounds to inhibit the α5β1 integrin mediated adhesion of K562 cells to the ligand, a fragment of human fibronectin. The human K562 erythroleukaemia cell line (LGC Promochem, Teddington, Middlesex, UK, Catalogue No. CCL-243) was routinely maintained in RPMI 1640 medium (Sigma-Aldrich Company Ltd, Gillingham, Dorset SP8 4XT, Catalogue No. R0883) containing 10% heat-inactivated foetal calf serum (PAA lab GmbH, Pasching, Austria Catalogue No. PAA-A15-043) and 1% glutamax-1 (Invitrogen Ltd. Paisley, UK Catalogue No. 35050-038) at 37° C. with 5% CO2 at densities between 1×10^5 and 1×10^6 cells/ml.
A DNA fragment encoding the domains 9-10 (amino-acids 1325-1509) of human fibronectin (Swiss-Prot Accession No. P02751) was isolated from cDNA libraries using standard molecular biology and PCR cloning techniques. The cDNA fragment was sub-cloned into a pT7#3.3 expression vector containing a GST-epitope tag (developed at AstraZeneca; Bagnall et al., Protein Expression and Purification, 2003, 27: 1-11), and the fragment termed Fn9-10. Following expression in E. coli, the expressed protein was purified using the GST-tag using standard purification techniques.
For adhesion assay, a 96-well flat bottomed plate (Greiner Bio one ltd., Gloucester GL10 3SX Catalogue No. 655101) was coated overnight at 4° C. with 100 μl of 20 μg/ml Fn9-10 ligand in Dulbecco's PBS (Gibco #14190-94). The plate was then washed twice with 200 μl of PBS and blocked with 100 μl of 3% BSA (SigmaA7888) in PBS for 1 hour at 37° C. The plates were then washed again 3 times with 200 μl of PBS and left empty. […]
After fixation, the ethanol was flicked off to waste and 100 μl of 0.1% Crystal violet stain was added to each well, and incubated at ambient temperature for 15 minutes. […] Finally, 100 μl of deionised water was added to each well and the absorbance was determined at 590 nm on a spectrophotometer. The minimum value was subtracted from all values, and the absorbance signal was plotted against compound concentration to generate IC50 data.
T1 sequence (P08648 42-894 limits assumed): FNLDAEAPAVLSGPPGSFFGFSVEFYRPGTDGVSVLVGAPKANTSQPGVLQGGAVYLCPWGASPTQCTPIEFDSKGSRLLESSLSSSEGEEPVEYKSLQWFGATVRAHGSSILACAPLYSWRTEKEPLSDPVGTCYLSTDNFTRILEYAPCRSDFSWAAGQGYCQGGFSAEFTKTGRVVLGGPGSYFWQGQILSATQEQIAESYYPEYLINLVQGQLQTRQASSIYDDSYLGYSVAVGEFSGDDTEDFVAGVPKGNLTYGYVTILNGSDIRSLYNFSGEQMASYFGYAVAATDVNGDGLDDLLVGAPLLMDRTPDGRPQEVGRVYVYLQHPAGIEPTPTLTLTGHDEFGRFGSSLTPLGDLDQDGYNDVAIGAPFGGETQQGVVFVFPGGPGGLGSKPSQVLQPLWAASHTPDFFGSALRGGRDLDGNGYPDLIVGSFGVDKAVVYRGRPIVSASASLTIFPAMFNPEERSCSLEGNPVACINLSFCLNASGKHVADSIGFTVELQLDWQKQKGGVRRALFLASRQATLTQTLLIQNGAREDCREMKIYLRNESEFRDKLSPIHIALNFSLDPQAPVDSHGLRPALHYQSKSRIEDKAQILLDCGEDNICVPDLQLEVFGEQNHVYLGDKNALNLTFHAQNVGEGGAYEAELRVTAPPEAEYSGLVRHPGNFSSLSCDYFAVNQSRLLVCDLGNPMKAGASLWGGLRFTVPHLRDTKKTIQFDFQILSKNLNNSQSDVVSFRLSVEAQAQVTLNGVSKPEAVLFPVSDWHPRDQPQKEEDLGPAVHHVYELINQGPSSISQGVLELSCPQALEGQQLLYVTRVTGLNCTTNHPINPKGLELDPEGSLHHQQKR
T1 sequence (P08648 895-1049 partner limits assumed): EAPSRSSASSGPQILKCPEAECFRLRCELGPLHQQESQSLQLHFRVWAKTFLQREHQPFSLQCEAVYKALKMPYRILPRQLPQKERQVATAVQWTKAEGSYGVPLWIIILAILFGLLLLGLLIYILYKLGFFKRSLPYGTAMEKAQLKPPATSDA
T1 sequence (P05556 21-798): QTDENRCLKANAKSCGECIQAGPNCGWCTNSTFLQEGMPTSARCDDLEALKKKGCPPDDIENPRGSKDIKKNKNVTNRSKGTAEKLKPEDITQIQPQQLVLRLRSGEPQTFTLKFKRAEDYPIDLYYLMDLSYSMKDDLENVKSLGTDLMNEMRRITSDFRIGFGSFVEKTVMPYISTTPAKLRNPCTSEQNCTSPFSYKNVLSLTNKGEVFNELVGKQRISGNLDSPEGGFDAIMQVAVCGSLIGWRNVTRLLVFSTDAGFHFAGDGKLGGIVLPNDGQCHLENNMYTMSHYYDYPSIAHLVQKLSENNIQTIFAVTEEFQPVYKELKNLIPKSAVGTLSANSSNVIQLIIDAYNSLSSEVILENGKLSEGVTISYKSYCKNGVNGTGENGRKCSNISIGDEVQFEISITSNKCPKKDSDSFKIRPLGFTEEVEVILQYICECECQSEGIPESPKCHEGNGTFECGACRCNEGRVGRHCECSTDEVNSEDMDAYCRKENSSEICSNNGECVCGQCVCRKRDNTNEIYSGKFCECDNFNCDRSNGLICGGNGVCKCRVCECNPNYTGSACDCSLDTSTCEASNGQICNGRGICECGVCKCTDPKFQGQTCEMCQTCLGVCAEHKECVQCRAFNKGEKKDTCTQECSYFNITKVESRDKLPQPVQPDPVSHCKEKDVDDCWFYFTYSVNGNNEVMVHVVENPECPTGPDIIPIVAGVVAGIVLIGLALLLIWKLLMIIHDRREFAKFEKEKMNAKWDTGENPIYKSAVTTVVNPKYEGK
As for `Cc1cccc(Cl)c1C(=O)N[C@@H](Cc1ccc(C2=CCN(Cc3ccc(F)cc3)CC2)cc1)C(=O)O` [N-(2-chloro-6-methylbenzoyl)-4-[1-(4-fluorobenzyl)-1,2,3,6-tetrahydropyridin-4-yl]-L-phenylalanine], the IC50 is no less than 30 µM.

The compound `O=C(N[C@@H](Cc1ccc(C2CCN(Cc3ccccc3F)CC2)cc1)C(=O)O)c1c(Cl)cccc1Cl` [N-(2,6-dichlorobenzoyl)-4-[1-(2-fluorobenzyl)piperidin-4-yl]-L-phenylalanine] yielded an IC50 of no less than 30 µM.

Consider `COc1cccc(CN2CCC(c3ccc(C[C@H](NC(=O)c4c(Cl)cccc4Cl)C(=O)O)cc3)CC2)c1` [N-(2,6-dichlorobenzoyl)-4-[1-(3-methoxybenzyl)piperidin-4-yl]-L-phenylalanine], for which the IC50 was no less than 30 µM.

In general, IC50 refers to the concentration that inhibits the measured activity by half.

For the origin of these results see patent US20090137601A1, “L-Phenylalanine Derivatives” (ASTRAZENECA AB, priority 2005, published 2009).
